How the values were obtained:
[1] = molecular target: hA2b/CHO (Homo sapiens (Human), UniProt P29275); experiment: cAMP inhibition assay in hA2b/CHO cells, 10 μM adenosine; format: cell-based; conditions: read-out: cAMP & FLIPR IC50 (nM) hA2b;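 note: cells exposed to compound 30 min at 37 °C, then stimulated with adenosine a further 30 min, cAMP read after 60 min at room temperature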
Experimental: (§1) hA2a/CHO, hA2b/CHO, hA3/CHO and mA2a/CHO (Genscript) were plated at 5×10^3 cells/well into 384-well polystyrene plates at the day of experiment. Compounds were pre-incubated with cells for 30 min at 37° C., 5% CO2. Then 10 μM adenosine was added to the cells and incubated for 30 min at 37° C., 5% CO2. Detection reagent (CISBIO) was added and the plates were incubated for 60 min at room temperature. The signal was captured by Envision.

[2] = molecular target: hA2a/CHO (Homo sapiens (Human), UniProt P29274); experiment: cAMP inhibition assay in hA2a/CHO cells, 10 μM adenosine; format: cell-based; conditions: read-out: cAMP & FLIPR IC50 (nM) hA2a;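 note: compounds added to cells 30 min ahead of adenosine, then a further 30 min at 37 °C with adenosine before cAMP detection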
Experimental: as §1

[3] = molecular target: mA2a/CHO (Mus musculus (Mouse), UniProt Q60613); experiment: cAMP inhibition assay in mA2a/CHO cells, 10 μM adenosine; format: cell-based; conditions: read-out: cAMP & FLIPR IC50 (nM) mA2a;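 note: compounds preincubated 30 min at 37 °C before the adenosine challenge, then 30 min further stimulation, readout after 60 min detection reagent incubation at room temperature in 384-well plates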
Experimental: as §1

[4] = molecular target: hADORA1/CHO (hA1 expressing) cells (Homo sapiens (Human), UniProt P30542); experiment: cell-based; conditions: FLIPR inhibition, 10 μM adenosine, read-out: cAMP & FLIPR IC50 (nM) hA1
Sequence of hADORA1/CHO (hA1 expressing) cells (P30542 whole entry): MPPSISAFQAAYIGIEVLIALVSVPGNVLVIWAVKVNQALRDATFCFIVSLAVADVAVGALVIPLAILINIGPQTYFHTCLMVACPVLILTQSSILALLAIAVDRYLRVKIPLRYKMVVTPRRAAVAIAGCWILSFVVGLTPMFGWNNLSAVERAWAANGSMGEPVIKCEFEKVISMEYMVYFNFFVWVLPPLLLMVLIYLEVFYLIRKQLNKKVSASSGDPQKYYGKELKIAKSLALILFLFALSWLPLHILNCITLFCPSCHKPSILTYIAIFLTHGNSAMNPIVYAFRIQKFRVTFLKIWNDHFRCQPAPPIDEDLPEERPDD

Sequence of hA2a/CHO (P29274 whole entry): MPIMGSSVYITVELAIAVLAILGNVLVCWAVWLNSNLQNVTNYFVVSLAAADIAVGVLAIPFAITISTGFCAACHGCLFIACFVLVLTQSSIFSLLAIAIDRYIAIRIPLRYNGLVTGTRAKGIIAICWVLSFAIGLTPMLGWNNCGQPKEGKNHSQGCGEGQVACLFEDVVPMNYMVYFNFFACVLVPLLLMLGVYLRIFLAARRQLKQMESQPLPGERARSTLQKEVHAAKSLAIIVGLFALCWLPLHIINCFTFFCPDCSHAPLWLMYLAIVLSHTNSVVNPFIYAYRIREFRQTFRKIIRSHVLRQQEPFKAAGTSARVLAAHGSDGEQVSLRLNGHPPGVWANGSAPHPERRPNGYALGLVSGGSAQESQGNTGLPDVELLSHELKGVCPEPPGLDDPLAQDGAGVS
Sequence of hA2b/CHO (P29275 whole entry): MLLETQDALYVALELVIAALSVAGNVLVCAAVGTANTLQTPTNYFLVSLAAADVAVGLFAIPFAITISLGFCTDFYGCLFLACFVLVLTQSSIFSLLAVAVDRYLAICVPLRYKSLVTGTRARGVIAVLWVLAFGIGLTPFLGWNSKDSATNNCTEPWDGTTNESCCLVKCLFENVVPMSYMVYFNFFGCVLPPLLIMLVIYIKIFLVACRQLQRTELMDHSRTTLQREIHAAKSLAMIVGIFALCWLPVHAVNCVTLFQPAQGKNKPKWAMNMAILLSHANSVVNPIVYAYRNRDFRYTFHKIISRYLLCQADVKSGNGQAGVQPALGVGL
Sequence of mA2a/CHO (Q60613 whole entry): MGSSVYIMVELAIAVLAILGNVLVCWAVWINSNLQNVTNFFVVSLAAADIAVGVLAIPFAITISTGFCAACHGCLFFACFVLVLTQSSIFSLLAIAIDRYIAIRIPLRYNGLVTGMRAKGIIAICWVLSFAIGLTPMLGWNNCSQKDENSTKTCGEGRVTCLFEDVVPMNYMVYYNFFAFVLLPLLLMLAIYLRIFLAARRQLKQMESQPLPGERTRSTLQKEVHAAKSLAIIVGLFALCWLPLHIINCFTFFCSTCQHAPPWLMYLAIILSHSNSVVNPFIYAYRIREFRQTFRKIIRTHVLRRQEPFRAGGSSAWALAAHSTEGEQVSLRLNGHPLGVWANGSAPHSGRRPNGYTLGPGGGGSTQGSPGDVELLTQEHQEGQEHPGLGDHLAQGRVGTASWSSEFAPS

SMILES	IC50 [1] [nM]	IC50 [2] [nM]	IC50 [3] [nM]	IC50 [4] [nM]
Cn1cc(-c2nc(C(=O)NCc3ncccc3OC(F)F)c(N)nc2-c2ccc(F)cc2)ccc1=O [Example 58, 3-amino-N-((3-(difluoromethoxy)pyridin-2-yl)methyl)-5-(4-fluorophenyl)-6-(1-methyl-6-oxo-1,6-dihydropyridin-3-yl)pyrazine-2-carboxamide]	62	19	81	18
COc1cccnc1CNC(=O)c1nc(-c2cc(C)nc(C)c2)c(-c2ccc(F)cc2)nc1N [Example 71, 3-amino-6-(2,6-dimethylpyridin-4-yl)-5-(4-fluorophenyl)-N-((3-methoxypyridin-2-yl)methyl)pyrazine-2-carboxamide]	1940	64	1250	388
Cn1cc(-c2nc(C(=O)NCc3ccccc3OC(F)F)c(N)nc2-c2ccc(F)cc2)ccc1=O [Example 72, 3-amino-N-(2-(difluoromethoxy)benzyl)-5-(4-fluorophenyl)-6-(1-methyl-6-oxo-1,6-dihydropyridin-3-yl)pyrazine-2-carboxamide]	23	1.3	8.1	14
Cn1cc(-c2nc(C(=O)NCc3c(F)cccc3OC(F)F)c(N)nc2-c2ccc(F)cc2)ccc1=O [Example 73, 3-amino-N-(2-(difluoromethoxy)-6-fluorobenzyl)-5-(4-fluorophenyl)-6-(1-methyl-6-oxo-1,6-dihydropyridin-3-yl) pyrazine-2-carboxamide]	8.1	0.4	4.2	20
COc1ccccc1CNC(=O)c1nc(-c2cc(C)nc(C)c2)c(-n2nccc2C)nc1N [Example 74, 3-amino-6-(2,6-dimethylpyridin-4-yl)-N-(2-methoxybenzyl)-5-(5-methyl-1H-pyrazol-1-yl)pyrazine-2-carboxamide]	≥ 10000	44	1950	216
COc1ccccc1CNC(=O)c1nc(-c2cc(C)nc(C)c2)c(-n2ccc(C)n2)nc1N [Example 75, 3-amino-6-(2,6-dimethylpyridin-4-yl)-N-(2-methoxybenzyl)-5-(3-methyl-1H-pyrazol-1-yl)pyrazine-2-carboxamide]	≥ 10000	6.1	157	44
COc1ccccc1CNC(=O)c1nc(-c2ccc(=O)n(C(F)F)c2)c(-c2ccc(F)cc2)nc1N [Example 76, 3-amino-6-(1-(difluoromethyl)-6-oxo-1,6-dihydropyridin-3-yl)-5-(4-fluorophenyl)-N-(2-methoxybenzyl) pyrazine-2-carboxamide]	76	4.2	22	68
Cc1cc(-c2nc(C(=O)NCc3ccccc3F)c(N)nc2-c2ccc(F)cc2)cc(C)n1 [Example 78, 3-amino-6-(2,6-dimethylpyridin-4-yl)-N-(2-fluorobenzyl)-5-(4-fluorophenyl)pyrazine-2-carboxamide]	≥ 10000	44	934	2730
Cc1cc(-c2nc(C(=O)NCc3ccccc3Cl)c(N)nc2-c2ccc(F)cc2)cc(C)n1 [Example 79, 3-amino-N-(2-chlorobenzyl)-6-(2,6-dimethylpyridin-4-yl)-5-(4-fluorophenyl) pyrazine-2-carboxamide]	≥ 10000	33	540	597
Cc1cc(-c2nc(C(=O)NCc3ccccc3Br)c(N)nc2-c2ccc(F)cc2)cc(C)n1 [Example 80, 3-amino-N-(2-bromobenzyl)-6-(2,6-dimethylpyridin-4-yl)-5-(4-fluorophenyl) pyrazine-2-carboxamide]	4170	44	158	1400
Cc1cc(-c2nc(C(=O)NCc3ccccc3C)c(N)nc2-c2ccc(F)cc2)cc(C)n1 [Example 81, 3-amino-6-(2,6-dimethylpyridin-4-yl)-5-(4-fIuorophenyl)-N-(2-methylbenzyl) pyrazine-2-carboxamide]	≥ 10000	98	301	4750
COc1ccccc1CNC(=O)c1nc(-c2cc(C)nc(N)c2)c(-c2ccc(F)cc2)nc1N [Example 83, 3-amino-6-(2-amino-6-methylpyridin-4-yl)-5-(4-fluorophenyl)-N-(2-methoxybenzyl)pyrazine-2-carboxamide]	547	2	116	132
CCc1ccccc1CNC(=O)c1nc(-c2cc(C)nc(C)c2)c(-c2ccc(F)cc2)nc1N [Example 84, 3-amino-6-(2,6-dimethylpyridin-4-yl)-N-(2-ethylbenzyl)-5-(4-fluorophenyl) pyrazine-2-carboxamide]	≥ 10000	18	238	1200
Cc1cc(-c2nc(C(=O)NCc3c(F)cccc3OC(F)F)c(N)nc2-c2ccc(F)cc2)cc(C)n1 [Example 85, 3-amino-N-(2-(difluoromethoxy)-6-fluorobenzyl)-6-(2,6-dimethylpyridin-4-yl)-5-(4-fluorophenyl)pyrazine-2-carboxamide]	418	2.5	36	299
COc1ccccc1C(=O)NCc1nc(-c2cc(C)nc(C)c2)c(-c2ccc(F)cc2)nc1N [Example 86, N-((3-amino-6-(2,6-dimethylpyridin-4-yl)-5-(4-fluorophenyl)pyrazin-2-yl)methyl)-2-methoxybenzamide]	7830	5	192	539
Nc1nc(-c2ccc(F)cc2)c(-c2ccc(=O)n(C3CC3)c2)nc1C(=O)NCc1c(F)cccc1F [Example 87, 3-amino-6-(1-cyclopropyl-6-oxo-1,6-dihydropyridin-3-yl)-N-(2,6-difluorobenzyl)-5-(4-fluorophenyl)pyrazine-2-carboxamide]	153	10	22	31
Cc1scnc1CNC(=O)c1nc(-c2ccc3nccn3c2)c(-c2ncco2)nc1N [Example 94, 3-amino-6-[imidazo[1,2-a]pyridin-6-yl]-N-[(5-methyl-1,3-thiazol-4-yl)methyl]-5-(1,3-oxazol-2-yl)pyrazine-2-carboxamide]	76	3.9	34	2960
Nc1ccnc(CNC(=O)c2nc(-c3ccc4nccn4c3)c(-c3ncco3)nc2N)n1 [Example 95, 3-amino-N-[(4-aminopyrimidin-2-yl)methyl]-6-[imidazo[1,2-a]pyridin-6-yl]-5-(1,3-oxazol-2-yl)pyrazine-2-carboxamide]	78	69	667	10000
CP(C)(=O)c1cccc(F)c1CNC(=O)c1nc(-c2ccc3nccn3c2)c(-c2ncco2)nc1N [Example 96, 3-amino-N-[[2-(dimethylphosphoryl)-6-fluorophenyl]methyl]-6-[imidazo[1,2-a]pyridin-6-yl]-5-(1,3-oxazol-2-yl)pyrazine-2-carboxamide]	164	2.5	7.5	136
